Measurements from article PMC4844702, “Selective inhibition of the kinase DYRK1A by targeting its folding process” (Nature Communications, 2016).

Assays:
Experiment in all cases: Kinase panel (Carna)
Type in all cases: biochemical
ACK = molecular target: T1, ACK (Homo sapiens, UniProt Q07912)
T1 construct: purchased Carna Biosciences
Source text: (§1) Detailed information on the assay conditions is available on the website of Carna Biosciences (http://www.carnabio.com).

ALK = molecular target: T2, ALK (Homo sapiens, UniProt Q9UM73)
T2 construct: purchased Carna Biosciences
Source text: as §1

ARG = molecular target: T3, ARG (Homo sapiens, UniProt P42684)
T3 construct: purchased Carna Biosciences
Source text: as §1

BLK = molecular target: T4, BLK (Homo sapiens, UniProt P51451)
T4 construct: purchased Carna Biosciences
Source text: as §1

EPHA3 = molecular target: T5, EPHA3 (Homo sapiens, UniProt P29320)
T5 construct: purchased Carna Biosciences

EPHA4 = molecular target: T6, EPHA4 (Homo sapiens, UniProt P54764)
T6 construct: purchased Carna Biosciences

EPHA7 = molecular target: T7, EPHA7 (Homo sapiens, UniProt Q15375)
T7 construct: purchased Carna Biosciences

EPHB1 = molecular target: T8, EPHB1 (Homo sapiens, UniProt P54762)
T8 construct: purchased Carna Biosciences
Source text: as §1

EPHB3 = molecular target: T9, EPHB3 (Homo sapiens, UniProt P54753)
T9 construct: purchased Carna Biosciences
Source text: as §1

FGFR3 = molecular target: T10, FGFR3 (Homo sapiens, UniProt P22607)
T10 construct: purchased Carna Biosciences

FGR = molecular target: T11, FGR (Homo sapiens, UniProt P09769)
T11 construct: purchased Carna Biosciences

FLT3 = molecular target: T12, FLT3 (Homo sapiens, UniProt P36888)
T12 construct: purchased Carna Biosciences
Source text: as §1

FYN = molecular target: T13, FYN (Homo sapiens, UniProt P06241)
T13 construct: purchased Carna Biosciences
Source text: as §1

HCK = molecular target: T14, HCK (Homo sapiens, UniProt P08631)
T14 construct: purchased Carna Biosciences
Source text: as §1

HER2 = molecular target: T15, HER2 (Homo sapiens, UniProt P04626)
T15 construct: purchased Carna Biosciences
Source text: as §1

INSR = molecular target: T16, INSR (Homo sapiens, UniProt P06213)
T16 construct: purchased Carna Biosciences
Source text: as §1

KIT = molecular target: T17, KIT (Homo sapiens, UniProt P10721)
T17 construct: purchased Carna Biosciences
Source text: as §1

LCK = molecular target: T18, LCK (Homo sapiens, UniProt P06239)
T18 construct: purchased Carna Biosciences
Source text: as §1

TRKC = molecular target: T19, TRKC (Homo sapiens, UniProt Q16288)
T19 construct: purchased Carna Biosciences
Source text: as §1

AMPKα1/β1/γ1 = molecular target: T20, AMPKα1/β1/γ1 (Homo sapiens, UniProt Q13131)
T20 construct: purchased Carna Biosciences
Source text: as §1

AurA/TPX2 = molecular target: T21, AurA/TPX2 (Homo sapiens, UniProt O14965)
T21 construct: purchased Carna Biosciences
Source text: as §1

AurB = molecular target: T22, AurB (Homo sapiens, UniProt Q96GD4)
T22 construct: purchased Carna Biosciences
Source text: as §1

CaMK2δ = molecular target: T23, CaMK2δ (Homo sapiens, UniProt Q13557)
T23 construct: purchased Carna Biosciences

CDK3/CycE1 = molecular target: T24, CDK3/CycE1 (Homo sapiens, UniProt Q00526)
T24 construct: purchased Carna Biosciences
Source text: as §1

CDK9/CycT1 = molecular target: T25, CDK9/CycT1 (Homo sapiens, UniProt P50750)
T25 construct: purchased Carna Biosciences
Source text: as §1

CGK2 = molecular target: T26, CGK2 (Homo sapiens, UniProt Q13237)
T26 construct: purchased Carna Biosciences
Source text: as §1

COT_Cascade = molecular target: T27, COT_Cascade (Homo sapiens, UniProt P41279)
T27 construct: purchased Carna Biosciences

DAPK1 = molecular target: T28, DAPK1 (Homo sapiens, UniProt P53355)
T28 construct: purchased Carna Biosciences
Source text: as §1

HGK = molecular target: T29, HGK (Homo sapiens, UniProt O95819)
T29 construct: purchased Carna Biosciences

HIPK2 = molecular target: T30, HIPK2 (Homo sapiens, UniProt Q9H2X6)
T30 construct: purchased Carna Biosciences
Source text: as §1

IKKε = molecular target: T31, IKKε (Homo sapiens, UniProt Q14164)
T31 construct: purchased Carna Biosciences
Source text: as §1

MAP3K2_Cascade = molecular target: T32, MAP3K2_Cascade (Homo sapiens, UniProt Q9Y2U5)
T32 construct: purchased Carna Biosciences
Source text: as §1

NuaK1 = molecular target: T33, NuaK1 (Homo sapiens, UniProt O60285)
T33 construct: purchased Carna Biosciences

MRCKβ = molecular target: T34, MRCKβ (Homo sapiens, UniProt Q9Y5S2)
T34 construct: purchased Carna Biosciences

NDR2 = molecular target: T35, NDR2 (Homo sapiens, UniProt Q9Y2H1)
T35 construct: purchased Carna Biosciences
Source text: as §1

p70S6K = molecular target: T36, p70S6K (Homo sapiens, UniProt P23443)
T36 construct: purchased Carna Biosciences
Source text: as §1

p70S6Kβ = molecular target: T37, p70S6Kβ (Homo sapiens, UniProt Q9UBS0)
T37 construct: purchased Carna Biosciences
Source text: as §1

PAK4 = molecular target: T38, PAK4 (Homo sapiens, UniProt O96013)
T38 construct: purchased Carna Biosciences
Source text: as §1

PDK1 = molecular target: T39, PDK1 (Homo sapiens, UniProt O15530)
T39 construct: purchased Carna Biosciences
Source text: as §1

PEK = molecular target: T40, PEK (Homo sapiens, UniProt Q9NZJ5)
T40 construct: purchased Carna Biosciences
Source text: as §1

PKCι = molecular target: T41, PKCι (Homo sapiens, UniProt P41743)
T41 construct: purchased Carna Biosciences
Source text: as §1

PKD1 = molecular target: T42, PKD1 (Homo sapiens, UniProt Q15139)
T42 construct: purchased Carna Biosciences
Source text: as §1

PKR = molecular target: T43, PKR (Homo sapiens, UniProt P19525)
T43 construct: purchased Carna Biosciences

RAF1_Cascade = molecular target: T44, RAF1_Cascade (Homo sapiens, UniProt P04049)
T44 construct: purchased Carna Biosciences

RSK4 = molecular target: T45, RSK4 (Homo sapiens, UniProt Q9UK32)
T45 construct: purchased Carna Biosciences

T2 sequence (Q9UM73 19-1620): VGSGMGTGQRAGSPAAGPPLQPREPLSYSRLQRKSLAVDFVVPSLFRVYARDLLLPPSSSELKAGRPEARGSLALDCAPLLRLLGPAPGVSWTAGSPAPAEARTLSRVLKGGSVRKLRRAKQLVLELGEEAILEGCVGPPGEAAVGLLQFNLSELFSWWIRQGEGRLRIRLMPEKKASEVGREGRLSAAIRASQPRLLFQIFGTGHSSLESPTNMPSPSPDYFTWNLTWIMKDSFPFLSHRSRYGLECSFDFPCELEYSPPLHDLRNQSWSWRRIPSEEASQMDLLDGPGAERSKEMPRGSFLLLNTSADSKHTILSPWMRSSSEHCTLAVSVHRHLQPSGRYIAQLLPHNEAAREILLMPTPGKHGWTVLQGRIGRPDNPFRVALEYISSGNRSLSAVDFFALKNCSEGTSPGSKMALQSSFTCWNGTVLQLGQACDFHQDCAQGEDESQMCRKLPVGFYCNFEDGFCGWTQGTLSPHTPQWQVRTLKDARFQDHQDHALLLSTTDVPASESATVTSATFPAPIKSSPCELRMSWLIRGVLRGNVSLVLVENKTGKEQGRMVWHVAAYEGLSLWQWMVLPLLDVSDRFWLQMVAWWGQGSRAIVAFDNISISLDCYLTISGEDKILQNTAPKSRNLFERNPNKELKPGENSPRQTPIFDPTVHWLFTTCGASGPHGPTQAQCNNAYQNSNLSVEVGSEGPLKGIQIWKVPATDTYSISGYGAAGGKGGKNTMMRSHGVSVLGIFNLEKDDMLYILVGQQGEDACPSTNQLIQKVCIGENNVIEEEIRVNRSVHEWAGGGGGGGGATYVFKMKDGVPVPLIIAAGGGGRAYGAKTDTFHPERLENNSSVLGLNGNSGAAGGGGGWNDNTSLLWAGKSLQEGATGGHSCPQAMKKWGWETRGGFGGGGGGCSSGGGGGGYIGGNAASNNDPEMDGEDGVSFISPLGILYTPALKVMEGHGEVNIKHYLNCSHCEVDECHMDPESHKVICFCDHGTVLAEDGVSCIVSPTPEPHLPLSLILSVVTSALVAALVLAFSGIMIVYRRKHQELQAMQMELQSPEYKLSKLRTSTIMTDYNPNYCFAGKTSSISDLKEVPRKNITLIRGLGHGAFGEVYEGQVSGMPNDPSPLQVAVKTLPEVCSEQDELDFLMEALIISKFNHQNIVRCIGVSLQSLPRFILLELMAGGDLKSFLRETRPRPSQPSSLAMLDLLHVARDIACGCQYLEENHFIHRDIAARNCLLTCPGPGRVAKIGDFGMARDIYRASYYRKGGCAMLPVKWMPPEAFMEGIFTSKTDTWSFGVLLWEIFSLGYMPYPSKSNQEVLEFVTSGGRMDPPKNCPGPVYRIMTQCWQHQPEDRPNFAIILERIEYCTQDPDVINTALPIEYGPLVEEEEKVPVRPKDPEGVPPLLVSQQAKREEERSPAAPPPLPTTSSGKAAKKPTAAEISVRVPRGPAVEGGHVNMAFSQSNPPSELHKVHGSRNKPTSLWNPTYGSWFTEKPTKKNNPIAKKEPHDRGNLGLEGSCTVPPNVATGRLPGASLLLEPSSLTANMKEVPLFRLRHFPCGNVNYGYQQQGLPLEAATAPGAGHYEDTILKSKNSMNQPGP
T6 sequence (P54764 20-986): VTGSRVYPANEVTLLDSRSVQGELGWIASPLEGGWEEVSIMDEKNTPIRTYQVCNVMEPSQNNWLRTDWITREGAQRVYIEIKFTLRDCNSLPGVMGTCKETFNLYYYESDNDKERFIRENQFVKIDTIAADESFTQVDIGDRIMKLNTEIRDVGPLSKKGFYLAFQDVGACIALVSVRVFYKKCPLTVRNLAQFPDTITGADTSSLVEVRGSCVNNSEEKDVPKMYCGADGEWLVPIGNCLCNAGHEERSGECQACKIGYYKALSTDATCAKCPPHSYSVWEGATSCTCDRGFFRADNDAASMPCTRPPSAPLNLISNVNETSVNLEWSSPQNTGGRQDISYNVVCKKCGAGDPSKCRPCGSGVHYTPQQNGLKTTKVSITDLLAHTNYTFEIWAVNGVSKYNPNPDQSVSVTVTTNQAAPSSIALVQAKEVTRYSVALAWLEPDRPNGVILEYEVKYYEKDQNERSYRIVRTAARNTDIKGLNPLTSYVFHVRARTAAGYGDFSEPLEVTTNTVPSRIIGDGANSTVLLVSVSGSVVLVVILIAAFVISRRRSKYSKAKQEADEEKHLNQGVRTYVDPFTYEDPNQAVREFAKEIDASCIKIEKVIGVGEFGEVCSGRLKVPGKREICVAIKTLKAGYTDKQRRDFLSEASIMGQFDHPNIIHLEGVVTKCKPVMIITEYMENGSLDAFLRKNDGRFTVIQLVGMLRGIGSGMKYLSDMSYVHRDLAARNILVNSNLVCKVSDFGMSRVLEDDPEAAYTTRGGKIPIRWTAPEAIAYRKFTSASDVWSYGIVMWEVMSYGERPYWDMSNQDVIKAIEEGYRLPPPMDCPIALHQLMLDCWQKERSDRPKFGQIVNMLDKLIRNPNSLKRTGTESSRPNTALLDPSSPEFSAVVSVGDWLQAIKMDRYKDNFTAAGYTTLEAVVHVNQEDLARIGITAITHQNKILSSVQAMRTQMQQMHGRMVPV
T24 sequence (Q00526 whole entry): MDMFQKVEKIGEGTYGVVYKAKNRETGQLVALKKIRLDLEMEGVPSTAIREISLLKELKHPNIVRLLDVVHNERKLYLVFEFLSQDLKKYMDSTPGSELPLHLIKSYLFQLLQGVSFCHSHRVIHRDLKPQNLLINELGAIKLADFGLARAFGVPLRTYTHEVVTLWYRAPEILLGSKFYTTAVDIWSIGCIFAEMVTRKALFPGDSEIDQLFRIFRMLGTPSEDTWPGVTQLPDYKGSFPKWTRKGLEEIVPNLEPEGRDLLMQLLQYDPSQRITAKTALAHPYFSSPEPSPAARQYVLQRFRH
T24 sequence (P24864 whole entry partner): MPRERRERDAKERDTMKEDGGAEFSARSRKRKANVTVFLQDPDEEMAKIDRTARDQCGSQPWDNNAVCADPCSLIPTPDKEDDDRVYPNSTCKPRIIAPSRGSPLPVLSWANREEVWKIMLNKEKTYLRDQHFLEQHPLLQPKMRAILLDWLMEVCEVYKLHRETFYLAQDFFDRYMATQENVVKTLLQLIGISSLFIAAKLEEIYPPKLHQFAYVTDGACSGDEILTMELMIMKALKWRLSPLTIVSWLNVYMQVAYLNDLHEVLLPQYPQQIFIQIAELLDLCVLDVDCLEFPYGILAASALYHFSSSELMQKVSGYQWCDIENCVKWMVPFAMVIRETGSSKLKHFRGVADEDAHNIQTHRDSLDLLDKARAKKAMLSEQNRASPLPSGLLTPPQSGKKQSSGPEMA
T15 sequence (P04626 23-1255): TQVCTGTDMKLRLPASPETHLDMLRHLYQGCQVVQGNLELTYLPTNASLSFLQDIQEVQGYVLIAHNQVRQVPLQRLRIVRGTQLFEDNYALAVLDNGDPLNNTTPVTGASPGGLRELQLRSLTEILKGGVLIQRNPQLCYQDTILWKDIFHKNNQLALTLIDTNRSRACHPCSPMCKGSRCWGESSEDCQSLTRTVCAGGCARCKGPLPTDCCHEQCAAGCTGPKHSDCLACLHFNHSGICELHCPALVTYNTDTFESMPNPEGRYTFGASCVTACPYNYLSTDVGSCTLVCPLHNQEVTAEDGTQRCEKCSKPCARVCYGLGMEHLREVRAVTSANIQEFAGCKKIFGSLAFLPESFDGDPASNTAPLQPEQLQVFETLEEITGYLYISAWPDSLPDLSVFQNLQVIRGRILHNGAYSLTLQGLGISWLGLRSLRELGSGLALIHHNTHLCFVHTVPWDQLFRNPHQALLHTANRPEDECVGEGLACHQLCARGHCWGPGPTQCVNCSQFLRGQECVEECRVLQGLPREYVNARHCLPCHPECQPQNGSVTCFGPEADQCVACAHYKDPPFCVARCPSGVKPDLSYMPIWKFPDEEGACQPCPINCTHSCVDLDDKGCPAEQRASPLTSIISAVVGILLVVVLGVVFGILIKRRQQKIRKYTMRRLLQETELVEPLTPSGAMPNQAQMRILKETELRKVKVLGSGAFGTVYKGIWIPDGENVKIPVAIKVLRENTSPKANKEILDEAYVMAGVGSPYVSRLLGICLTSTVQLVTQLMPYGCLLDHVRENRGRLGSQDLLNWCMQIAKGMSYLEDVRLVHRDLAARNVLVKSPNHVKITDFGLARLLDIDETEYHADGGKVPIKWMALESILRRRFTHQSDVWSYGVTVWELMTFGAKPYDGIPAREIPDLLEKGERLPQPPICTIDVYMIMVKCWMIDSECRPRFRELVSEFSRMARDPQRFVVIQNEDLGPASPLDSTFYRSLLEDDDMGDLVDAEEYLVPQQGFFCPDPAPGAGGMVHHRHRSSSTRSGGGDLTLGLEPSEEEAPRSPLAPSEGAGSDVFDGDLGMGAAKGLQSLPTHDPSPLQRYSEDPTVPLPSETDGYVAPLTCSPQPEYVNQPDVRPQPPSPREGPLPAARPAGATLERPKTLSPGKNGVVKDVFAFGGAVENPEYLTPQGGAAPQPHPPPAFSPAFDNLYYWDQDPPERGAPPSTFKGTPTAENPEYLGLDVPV
T22 sequence (Q96GD4 whole entry): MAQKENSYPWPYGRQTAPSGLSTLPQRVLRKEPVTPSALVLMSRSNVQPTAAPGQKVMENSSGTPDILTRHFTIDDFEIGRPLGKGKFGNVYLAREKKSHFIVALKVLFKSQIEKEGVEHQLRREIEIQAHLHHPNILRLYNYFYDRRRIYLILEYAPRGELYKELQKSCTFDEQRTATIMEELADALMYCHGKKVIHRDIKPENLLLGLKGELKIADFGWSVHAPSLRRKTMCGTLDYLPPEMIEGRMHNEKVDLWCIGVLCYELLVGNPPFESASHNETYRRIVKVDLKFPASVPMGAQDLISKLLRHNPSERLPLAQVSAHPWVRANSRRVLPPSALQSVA
T22 sequence (Q9NQS7 803-918 partner limits assumed): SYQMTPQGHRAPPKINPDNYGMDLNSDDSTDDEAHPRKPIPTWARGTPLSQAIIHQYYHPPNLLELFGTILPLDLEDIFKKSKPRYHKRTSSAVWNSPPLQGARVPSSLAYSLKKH

COc1ccc(/C=C2\SC(=S)NC2=O)cc1C#C[Si](C)(C)C [FINDY]
inhibition at 10 µM (ACK): -2.2% | inhibition at 10 µM (ALK): -4.3% | inhibition at 10 µM (ARG): 15.2% | inhibition at 10 µM (BLK): 25.5% | inhibition at 10 µM (EPHA3): 20.8% | inhibition at 10 µM (EPHA4): 16.3% | inhibition at 10 µM (EPHA7): 18.7% | inhibition at 10 µM (EPHB1): 13.9% | inhibition at 10 µM (EPHB3): 22.2% | inhibition at 10 µM (FGFR3): -0.5% | inhibition at 10 µM (FGR): 5.3% | inhibition at 10 µM (FLT3): 16% | inhibition at 10 µM (FYN): 58.4% | inhibition at 10 µM (HCK): 35.3% | inhibition at 10 µM (HER2): -0.1% | inhibition at 10 µM (INSR): -1.3% | inhibition at 10 µM (KIT): 2.9% | inhibition at 10 µM (LCK): 7.2% | inhibition at 10 µM (TRKC): 11.8% | inhibition at 10 µM (AMPKα1/β1/γ1): 8.6% | inhibition at 10 µM (AurA/TPX2): 25.1% | inhibition at 10 µM (AurB): 35.7% | inhibition at 10 µM (CaMK2δ): -4% | inhibition at 10 µM (CDK3/CycE1): 20.7% | inhibition at 10 µM (CDK9/CycT1): 3.1% | inhibition at 10 µM (CGK2): 14.6% | inhibition at 10 µM (COT_Cascade): 55.4% | inhibition at 10 µM (DAPK1): 14.8% | inhibition at 10 µM (HGK): 13.4% | inhibition at 10 µM (HIPK2): 6.2% | inhibition at 10 µM (IKKε): -2% | inhibition at 10 µM (MAP3K2_Cascade): 55.8% | inhibition at 10 µM (NuaK1): -26.4% | inhibition at 10 µM (MRCKβ): 0.1% | inhibition at 10 µM (NDR2): 8.1% | inhibition at 10 µM (p70S6K): 7.4% | inhibition at 10 µM (p70S6Kβ): 19.9% | inhibition at 10 µM (PAK4): -20.1% | inhibition at 10 µM (PDK1): -2.6% | inhibition at 10 µM (PEK): 13% | inhibition at 10 µM (PKCι): -4.3% | inhibition at 10 µM (PKD1): 11.8% | inhibition at 10 µM (PKR): 5.8% | inhibition at 10 µM (RAF1_Cascade): 50.9% | inhibition at 10 µM (RSK4): 29.6%
